Measurements published in article PMC12607321, “Sumac Polyphenols as Pan-Herpesvirus Inhibitors” (International Journal of Molecular Sciences, 2025).
Converted amounts (≈) assume the structure as drawn. “And” between values parts separate entries of the source, which are not always exact repeats. Equal entries are not always repeated. Where two headings read alike, the source gives them in different places.

Assays:
MDCK cells = conditions: MTT
HSV-1L2 = assay: Antiviral activity in Vero E6 cells infected with HSV-1 (cytopathic effect); assay type: cell-based
Vero E6 cells = assay: Cytotoxicity (MTT) in Vero E6 cells (HSV system); assay type: cell-based
B95-8 cells = assay: Cytotoxicity (MTT) in B95-8 cells; assay type: cell-based, cotton-top tamarin (Saguinus oedipus); conditions: B95-8 cells, MTT, 72 h
Protocol: (§1) In each virus–cell system, cytotoxicity ranges were determined for polyphenols and reference compounds using MTT assay. Half-maximal cytotoxic concentrations (CC50) were determined from the curves of the dependence of the proportion of cells retaining viability after incubation with the compound (relative to the number of cells incubated in the absence of the compound) on its concentration, using nonlinear regression equations (4 parameters).
(§2) To assess cytotoxicity, B95-8 cells (5 × 10^5 per 1 mL) were incubated with polyphenols at 37 °C in an atmosphere of 5% CO2 for 72 h. The experiment was then carried out as described in Section 4.3.5.

[1] = system: influenza A virus/California/07/2009 (H1N1) pdm; assay: microbe, parasite or virus in culture; assay type: cell-based; conditions: for IC50: IAV H1N1pdm in MDCK cells
HSV-2BH = assay: Antiviral activity in Vero E6 cells infected with HSV-2 (cytopathic effect); assay type: cell-based
HIV-1 (HIVIIIB) = assay: microbe, parasite or virus in culture; assay type: cell-based; conditions: Human immunodeficiency virus 1, MT4; HIV-1 IIIB in MT-4 cells
in vitro [2] = conditions: human
[3] = Cytotoxicity (MTT) in Vero E6 cells (HSV system); assay type: cell-based; conditions: African green monkey
EBVB95-8 = assay: Inhibition of EBV replication in B95-8 cells (EBV genomic DNA, real-time PCR); assay type: cell-based, Epstein–Barr virus; conditions: for IC50: human gammaherpesvirus 4, B-95-8, 48 h, read-out: IC50, Inhibition on EBV Replication
CMV (strain AD169) [4] = assay: Anti-CMV, pre-inoculation setup (plaques) in HELF; assay type: cell-based, human cytomegalovirus
[5] = Cytotoxicity (MTT) in B95-8 cells; assay type: cell-based, cotton-top tamarin (Saguinus oedipus); conditions: cotton-top tamarin (Saguinus oedipus)
Protocol: as §1, §2

CMV (strain AD169) [6] = assay: Anti-CMV, post-inoculation setup: inhibition of infectious virus production (plaques from conditioned medium) in HELF; assay type: cell-based, human cytomegalovirus
CMV (strain AD169) [7] = assay: Anti-CMV, post-inoculation setup: inhibition of intracellular replication (cells stained for viral proteins) in HELF; assay type: cell-based, human cytomegalovirus
in vitro [8] = conditions: human; remark: listed apart in the source
in vitro [9] = conditions: dog
[10] = system: SARS-CoV-2 (HCoV-19/Russia/Moscow-PMVL-12/2020, EPI_ SL_572398); assay: microbe, parasite or virus in culture; assay type: cell-based; conditions: for IC50: Severe acute respiratory syndrome coronavirus 2, Vero C1008; for Δ(lgTCID50)max: maximum difference in virus titers, Vero E6 cells
[11] = Cytotoxicity (MTT) in Vero E6 cells (SARS-CoV-2 system); assay type: cell-based; conditions: African green monkey
Protocol: First, we performed biological testing of Rutan and geraniin against IAV and SARS-CoV-2. […] In addition, we evaluated geraniin against SARS-CoV-2 (in Vero E6 cells), and HIV-1 (in MT-4 cells) to confirm its activity. In all experiments three parameters were determined: concentrations of a drug that suppressed virus replication (IC50) or decreased cell viability (CC50) by 50% as well as their ratio—the selectivity index (SI, CC50/IC50 [123]).
as §1

HIV-1 = system: HIV-1; design: method as in ref 103 (Notka et al.); conditions: ref 103 (Notka et al.); cited from earlier work
IAV = conditions: cited from earlier work
SARS-CoV-2 = system: SARS-CoV-2; design: method as in doi:10.2139/ssrn.4000447; conditions: geraniin isolated from Elaeocarpus sylvestris; cited from earlier work
CMVTowne strain = system: CMVTowne strain; design: method as in ref 35 (Kim et al.); conditions: human foreskin fibroblasts, ref 35 (Kim et al.); cited from earlier work
[12] = Cytotoxicity (MTT) in HELF cells; conditions: human
[13] = Human alphaherpesvirus 1, Vero C1008, HSV-1L2, Vero E6, 0.1 PFU/cell, read-out: IC50
[14] = Human alphaherpesvirus 2, Vero C1008, HSV-2BH, Vero E6, 0.1 PFU/cell, read-out: IC50
[15] = Human betaherpesvirus 5, post-inoculation setup, CMV AD169 in HELF
[16] = Influenza A virus, H1N1, read-out: IC50
[17] = Human betaherpesvirus 5, AD169, HELF

2,4-bis-O-galloyl-1,3,6-tri-O-galloyl-β-D-glucose [R7]
CC50 (MDCK cells): 191.01 mg/L
IC50 (HSV-1L2): 5.95 mg/L
IC95 (HSV-1L2): 8.32 mg/L
CC50 (Vero E6 cells): 165.00 mg/L
CC50 (B95-8 cells): 33 mg/L
Δ(lgTCID50)max [1]: 2.75
IC50 [1]: 2.13 mg/L
IC50 (HSV-2BH): 8.32 mg/L
IC95 (HSV-2BH): 31.25 mg/L

Cc1cn([C@H]2C[C@H](N=[N+]=[N-])[C@@H](CO)O2)c(=O)[nH]c1=O [Azidothymidine, reference compound]
IC50 (HIV-1 (HIVIIIB)): 0.002 mg/L (≈ 0.00748 µM)
CC50 (in vitro [2]): 3.6 mg/L (≈ 13.5 µM)

O=C(O)P(=O)(O)O [Foscarnet, reference compound]
IC95 (HSV-1L2; HSV-1L2, Vero E6, 0.1 PFU/cell): 62.5 mg/L (≈ 496 µM)
IC50 (HSV-1L2; [13]): 15.6 mg/L (≈ 124 µM)
CC50 [3]: > 125 mg/L
IC95 (HSV-2BH; HSV-2BH, Vero E6, 0.1 PFU/cell): 31.25 mg/L (≈ 248 µM)
IC50 (HSV-2BH; [14]): 7.8 mg/L (≈ 61.9 µM)

Nc1nc(O)c2ncn(COC(CO)CO)c2n1 [Ganciclovir, reference compound]
IC50 (EBVB95-8): 100 mg/L (≈ 392 µM)
SI, Pre-Inoculation Setup (CMV (strain AD169) [4]; pre-inoculation setup, CC50/IC50): No activity
IC50, Pre-Inoculation Setup (CMV (strain AD169) [4]; pre-inoculation setup, CMV AD169 in HELF): No activity
CC50 at 72 h [5]: > 1000 mg/L
IC50 (CMV (strain AD169) [6]; [15]): < 0.1 mg/L
IC50 (CMV (strain AD169) [7]; [15]): 0.22 mg/L (≈ 0.862 µM)
CC50 at 72 h (in vitro [8]): 185 mg/L (≈ 725 µM)

O=C1O[C@H]2C3OC(=O)c4cc(O)c(O)c(O)c4-c4c(cc(O)c(O)c4O)C(=O)OC[C@H]2O[C@@H](OC(=O)c2cc(O)c(O)c(O)c2)[C@@H]3OC(=O)c2cc(O)c(O)c3c2[C@@H]2C1=CC(=O)[C@](O)(O3)C2(O)O [Geraniin, (1R,7R,26R,28S,29R,38R)-1,13,14,15,18,19,20,34,35,39,39-Undecahydroxy-2,5,10,23,31-pentaoxo-6,9,24,27,30,40-hexaoxaoctacyclo [34.3.1.0~4,38~.0~7,26~.0~8,29~.0~11,16~.0~17, 22~.0~32,37~]tetraconta-3,11,1 3,15,17,19,21,32,34,36-decaen-28-yl 3,4,5-trihydroxybenzoate]
IC95 (HSV-1L2; HSV-1L2, Vero E6, 0.1 PFU/cell): 1.56 mg/L (≈ 1.64 µM)
IC50 (HSV-1L2; [13]): 1.2 mg/L (≈ 1.26 µM)
activity against EBV (in words) (EBVB95-8; B95-8 cells): did not interfere
CC50 (in vitro [9]): 288 mg/L (≈ 302 µM)
CC50 [3]: 65.9 mg/L (≈ 69.2 µM)
IC50 (HIV-1 (HIVIIIB)): 1.6 mg/L (≈ 1.68 µM)
IC50 ([10]; SARS-CoV-2 in Vero E6 cells, read-out: IC50): 5.2 mg/L (≈ 5.46 µM)
Δ(lgTCID50)max [10]: 4.75
CC50 [11]: 65.4 mg/L (≈ 68.7 µM)
IC50 (HIV-1): 0.46 mg/L (≈ 0.483 µM)
CC50 at 72 h ([5]; B95-8 cells, MTT, 72 h, read-out: CC50): 63 mg/L (≈ 66.1 µM)
result for geraniin against IAV compared with IC50 (IAV; ref 72 (Joo et al.)): 5.3 mg/L
result for geraniin against IAV compared with IC50 (IAV; ref 96 (Choi et al.)): 34 mg/L
Δ(lgTCID50)max [1]: 4.5
IC50 [1, 16]: 10.8 mg/L (≈ 11.4 µM)
concentration range suppressing virus replication (SARS-CoV-2): 1 to 25 µg/mL
activity against CMV (in words) (CMV (strain AD169) [7]; CMV AD169 in HELF): did not interfere
IC95 (HSV-2BH; HSV-2BH, Vero E6, 0.1 PFU/cell): 6.25 mg/L (≈ 6.56 µM)
IC50 (HSV-2BH; [14]): 0.39 mg/L (≈ 0.409 µM)
CC50 (in vitro [2]): 41 mg/L (≈ 43 µM)

CC(C)(C)[C@H](NC(=O)C(F)(F)F)C(=O)N1C[C@H]2[C@@H]([C@H]1C(=O)N[C@H](C#N)C[C@@H]1CCNC1=O)C2(C)C [Nirmatrelvir, reference compound]
IC50 [10]: 0.1 mg/L (≈ 0.2 µM)
Δ(lgTCID50)max [10]: 6.0
CC50 [11]: > 20 mg/L

CCOC(=O)C1=C[C@@H](OC(CC)CC)[C@H](NC(C)=O)[C@@H](N)C1 [Oseltamivir, reference compound]
CC50 (in vitro [9]): > 10 mg/L
Δ(lgTCID50)max [1]: 6.0
IC50 [1, 16]: 0.02 mg/L (≈ 0.064 µM)

O=C(OC[C@H]1O[C@@H](OC(=O)c2cc(O)c(O)c(O)c2)[C@H](OC(=O)c2cc(O)c(O)c(O)c2)[C@@H](OC(=O)c2cc(O)c(O)c(O)c2)[C@@H]1OC(=O)c1cc(O)c(O)c(O)c1)c1cc(O)c(O)c(O)c1 [R5, 1,2,3,4,6-penta-O-galloyl-β-D-glucose]
IC95 (HSV-1L2): 25.0 mg/L (≈ 26.6 µM)
IC50 (HSV-1L2; Human alphaherpesvirus 1, Vero C1008, read-out: IC50): 12.5 mg/L (≈ 13.3 µM)
decrease of the level of intracellular viral DNA (EBVB95-8; 10 μg/mL, 48 h, B95-8 cells): 39 ± 5%
IC50 (EBVB95-8): > 10 mg/L
CC50 (in vitro [9]): 86.3 mg/L (≈ 91.8 µM)
CC50 [3]: 188 mg/L (≈ 200 µM)
IC50 (CMV (strain AD169) [4]; [17]): 2.2 mg/L (≈ 2.34 µM)
activity against CMV (in words) (CMVTowne strain): failed to detect the activity
CC50 (B95-8 cells): 85 mg/L (≈ 90.4 µM)
IC50 (CMV (strain AD169) [6]; [17]): 6.4 mg/L (≈ 6.8 µM)
Δ(lgTCID50)max [1]: 1.5
IC50 [1, 16]: 8.85 mg/L (≈ 9.41 µM)
reduction of the number of infected HELF (CMV (strain AD169) [7]): 71% and 86%
IC50 (CMV (strain AD169) [7]; [17]): 7.4 mg/L (≈ 7.87 µM)
IC95 (HSV-2BH): 25.0 mg/L (≈ 26.6 µM)
IC50 (HSV-2BH; Human alphaherpesvirus 2, Vero C1008, read-out: IC50): 12.5 mg/L (≈ 13.3 µM)
CC50 at 72 h [12]: 150 mg/L (≈ 159 µM)

O=C(OC[C@H]1O[C@@H](OC(=O)c2cc(O)c(O)c(O)c2)[C@H](OC(=O)c2cc(O)c(O)c(O)c2)[C@@H](OC(=O)c2cc(O)c(O)c(OC(=O)c3cc(O)c(O)c(O)c3)c2)[C@@H]1OC(=O)c1cc(O)c(O)c(O)c1)c1cc(O)c(O)c(O)c1 [R6, 3-bis-O-galloyl-1,2,4,6-tetra-O-galloyl-β-D-glucose]
CC50 (MDCK cells): 93.13 mg/L (≈ 85.2 µM)
IC50 (HSV-1L2; HSV-1L2, Vero E6, 0.1 PFU/cell): 25.0 mg/L (≈ 22.9 µM)
IC95 (HSV-1L2; HSV-1L2, Vero E6, 0.1 PFU/cell): >25.0 mg/L
CC50 (Vero E6 cells): 69.62 mg/L (≈ 63.7 µM)
CC50 (B95-8 cells): >20 mg/L
Δ(lgTCID50)max [1]: 1.0
IC50 [1]: >50 mg/L
IC50 (HSV-2BH; HSV-2BH, Vero E6, 0.1 PFU/cell): 31.25 mg/L (≈ 28.6 µM)
IC95 (HSV-2BH; HSV-2BH, Vero E6, 0.1 PFU/cell): 50.0 mg/L (≈ 45.8 µM)

O=C(OC[C@H]1O[C@@H](OC(=O)c2cc(O)c(O)c(O)c2)[C@H](OC(=O)c2cc(O)c(O)c(OC(=O)c3cc(O)c(O)c(O)c3)c2)[C@@H](OC(=O)c2cc(O)c(O)c(OC(=O)c3cc(O)c(O)c(O)c3)c2)[C@@H]1OC(=O)c1cc(O)c(O)c(OC(=O)c2cc(O)c(O)c(O)c2)c1)c1cc(O)c(O)c(O)c1 [R8, 2,3,4-bis-O-galloyl-1,6-di-O-galloyl-β-D-glucose]
CC50 (MDCK cells): 233 mg/L (≈ 167 µM)
IC50 (HSV-1L2; HSV-1L2, Vero E6, 0.1 PFU/cell): 10.0 mg/L (≈ 7.16 µM)
IC95 (HSV-1L2; HSV-1L2, Vero E6, 0.1 PFU/cell): 31.25 mg/L (≈ 22.4 µM)
CC50 (Vero E6 cells): 106.00 mg/L (≈ 75.9 µM)
CC50 (B95-8 cells): >20 mg/L
Δ(lgTCID50)max [1]: 4.25
IC50 [1]: 0.8 mg/L (≈ 0.573 µM)
IC50 (HSV-2BH; HSV-2BH, Vero E6, 0.1 PFU/cell): 31.25 mg/L (≈ 22.4 µM)
IC95 (HSV-2BH; HSV-2BH, Vero E6, 0.1 PFU/cell): 62.5 mg/L (≈ 44.7 µM)
